Laboratory results from patent US10927078B2, “Modulators of indoleamine 2,3-dioxygenase” (GLAXOSMITHKLINE INTELLECTUAL PROPERTY DEVELOPMENT LIMITED, priority 2017, dated 2021).
Read-outs that look alike come from different tables or passages of the source.

Biological target: indoleamine 2, 3-dioxygenase (IDO1) (Homo sapiens, UniProt P14902)
Assay: PBMC IDO1 assay (kynurenine via mass spectrometry)
Format: cell-based
Method: Compounds of the present invention were tested via high-throughput cellular assays utilizing detection of kynurenine via mass spectrometry and cytotoxicity as end-points. For the mass spectrometry and cytotoxicity assays, human peripheral blood mononuclear cells (PBMC) (PB003F; AllCells®, Alameda, Calif.) were stimulated with human interferon-γ (IFN-γ) (Sigma-Aldrich Corporation, St. Louis, Mo.) and lipopolysaccharide from Salmonella minnesota (LPS) (Invivogen, San Diego, Calif.) to induce the expression of indoleamine 2, 3-dioxygenase (IDO1). Compounds with IDO1 inhibitory properties decreased the amount of kynurenine produced by the cells via the tryptophan catabolic pathway. Cellular toxicity due to the effect of compound treatment was measured using CellTiter-Glo® reagent (CTG) (Promega Corporation, Madison, Wis.), which is based on luminescent detection of ATP, an indicator of metabolically active cells.
In preparation for the assays, test compounds were serially diluted 3-fold in DMSO from a typical top concentration of 5 mM and plated at 0.5 μL in 384-well, polystyrene, clear bottom, tissue culture treated plates with lids (Greiner Bio-One, Kremsmünster, Austria) to generate 11-point dose response curves. Low control wells (0% kynurenine or 100% cytotoxicity) contained either 0.5 μL of DMSO in the presence of unstimulated (-IFN-γ/-LPS) PBMCs for the mass spectrometry assay or 0.5 μL of DMSO in the absence of cells for the cytotoxicity assay, and high control wells (100% kynurenine or 0% cytotoxicity) contained 0.5 μL of DMSO in the presence of stimulated (+IFN-γ/+LPS) PBMCs for both the mass spectrometry and cytotoxicity assays.
Frozen stocks of PBMCs were washed and recovered in RPMI 1640 medium (Thermo Fisher Scientific, Inc., Waltham, Mass.) supplemented with 10% v/v heat-inactivated fetal bovine serum (FBS) (Thermo Fisher Scientific, Inc., Waltham, Mass.), and 1× penicillin-streptomycin antibiotic solution (Thermo Fisher Scientific, Inc., Waltham, Mass.). The cells were diluted to 1,000,000 cells/mL in the supplemented RPMI 1640 medium. 50 μL of either the cell suspension, for the mass spectrometry assay, or medium alone, for the cytotoxicity assay, were added to the low control wells, on the previously prepared 384-well compound plates, resulting in 50,000 cells/well or 0 cells/well respectively. IFN-γ and LPS were added to the remaining cell suspension at final concentrations of 100 ng/ml and 50 ng/ml respectively, and 50 μL of the stimulated cells were added to all remaining wells on the 384-well compound plates. The plates, with lids, were then placed in a 37° C., 5% CO2 humidified incubator for 2 days.
Following incubation, the 384-well plates were removed from the incubator and allowed to equilibrate to room temperature for 30 minutes. For the cytotoxicity assay, CellTiter-Glo® was prepared according to the manufacturer's instructions, and 40 μL were added to each plate well. After a twenty minute incubation at room temperature, luminescence was read on an EnVision® Multilabel Reader (PerkinElmer Inc., Waltham, Mass.). For the mass spectrometry assay, 10 μL of supernatant from each well of the compound-treated plates were added to 40 μL of acetonitrile, containing 10 μM of an internal standard for normalization, in 384-well, polypropylene, V-bottom plates (Greiner Bio-One, Kremsmünster, Austria) to extract the organic analytes. Following centrifugation at 2000 rpm for 10 minutes, 10 μL from each well of the acetonitrile extraction plates were added to 90 μL of sterile, distilled H2O in 384-well, polypropylene, V-bottom plates for analysis of kynurenine and the internal standard on the RapidFire 300 (Agilent Technologies, Santa Clara, Calif.) and 4000 QTRAP MS (SCIEX, Framingham, Mass.). MS data were integrated using Agilent Technologies' RapidFire Integrator software, and data were normalized for analysis as a ratio of kynurenine to the internal standard. […]

[1] = human PBMC stimulated with IFN-γ and LPS, 2 days, kynurenine by mass spectrometry, recorded as pIC50, read-out: PBMC PXC50_ (converted)

indoleamine 2, 3-dioxygenase (IDO1), sequence (P14902 whole entry): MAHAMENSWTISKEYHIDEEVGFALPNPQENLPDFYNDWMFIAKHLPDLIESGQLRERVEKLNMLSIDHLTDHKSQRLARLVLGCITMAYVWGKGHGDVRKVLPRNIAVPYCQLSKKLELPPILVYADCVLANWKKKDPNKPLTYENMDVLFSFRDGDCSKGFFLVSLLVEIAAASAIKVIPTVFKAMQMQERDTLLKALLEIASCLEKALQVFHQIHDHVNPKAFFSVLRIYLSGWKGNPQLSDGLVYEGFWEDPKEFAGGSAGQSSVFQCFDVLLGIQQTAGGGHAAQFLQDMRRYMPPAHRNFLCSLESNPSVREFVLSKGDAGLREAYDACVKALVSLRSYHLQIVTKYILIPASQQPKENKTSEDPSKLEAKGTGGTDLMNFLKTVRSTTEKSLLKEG

Structure (SMILES)	IC50 [1]	IC50
O=C(N[C@H](c1ccccc1)C1CCN(C(=O)Oc2cccnc2F)CC1)c1ccc(Cl)cc1 [Example 31, 2-fluoropyridin-3-yl 4-[(S)-[(4-chlorophenyl)formamido](phenyl)methyl]piperidine-1-carboxylate]		5.01 nM
Cc1ccc(C(=O)N[C@H](C2CC2)C2CCN(C(=O)Oc3ccnc(C)c3C)CC2)s1 [Example 32, 2,3-dimethylpyridin-4-yl 4-[(R)-cyclopropyl[(5-methylthiophen-2-yl)formamido]methyl]piperidine-1-carboxylate]	5.01 nM	
CC(C)CC(NC(=O)c1ccc(Cl)cc1)C1CCN(C(=O)Oc2cccnc2C(C)C)CC1 (centres unmarked) [Example 34, 2-(propan-2-yl)pyridin-3-yl 4-{1-[(4-chlorophenyl)formamido]-3-methylbutyl}piperidine-1-carboxylate]		6.31 nM
Cc1c(F)cccc1OC(=O)N1CCC([C@@H](C)NC(=O)c2ccc(Cl)s2)CC1 [Example 36, 3-fluoro-2-methylphenyl 4-[(1R)-1-[(5-chlorothiophen-2-yl)formamido]ethyl]piperidine-1-carboxylate]	6.31 nM	
CC(C)CC(NC(=O)c1ccc(F)cc1)C1CCN(C(=O)Oc2ccccc2)CC1 (centres unmarked) [Example 37, phenyl 4-{1-[(4-fluorophenyl)formamido]-3-methylbutyl}piperidine-1-carboxylate]	7.94 nM	
C[C@@H](NC(=O)c1ccc(Cl)s1)C1CCN(C(=O)Oc2ccccc2)CC1 [Example 38, phenyl 4-[(1R)-1-[(5-chlorothiophen-2-yl)formamido]ethyl]piperidine-1-carboxylate]	7.94 nM	
CC(C)CC(NC(=O)c1ccccc1)C1CCN(C(=O)Oc2ccccc2)CC1 (centres unmarked) [Example 39, phenyl 4-[3-methyl-1-(phenylformamido)butyl]piperidine-1-carboxylate]	7.94 nM	
COCCC[C@@H](NC(=O)c1ccc(F)cc1)C1CCN(C(=O)Oc2cccc(F)c2C)CC1 [Example 42, 3-fluoro-2-methylphenyl 4-[(1R)-1-[(4-fluorophenyl)formamido]-4-methoxybutyl]piperidine-1-carboxylate]	7.94 nM	
O=C(NC(c1ccccc1)C1CCN(C(=O)Oc2ccccc2)CC1)c1ccccc1 (centres unmarked) [Example 43, phenyl 4-[phenyl(phenylformamido)methyl]piperidine-1-carboxylate]	10 nM	
CC(C)CC(NC(=O)c1ccc(F)cc1)C1CCN(C(=O)Oc2cncc(F)c2)CC1 (centres unmarked) [Example 45, 5-fluoropyridin-3-yl 4-{1-[(4-fluorophenyl)formamido]-3-methylbutyl}piperidine-1-carboxylate]		10 nM
O=C(NC(C1CC1)C1CCN(C(=O)Oc2ccccc2)CC1)c1ccc(Cl)s1 (centres unmarked) [Example 46, phenyl 4-{[(5-chlorothiophen-2-yl)formamido](cyclopropyl)methyl}piperidine-1-carboxylate]	10 nM	
COc1ncccc1OC(=O)N1CCC([C@H](NC(=O)c2ccc(Cl)cc2)c2ccccc2)CC1 [Example 49, 2-methoxypyridin-3-yl 4-[(S)-[(4-chlorophenyl)formamido](phenyl)methyl]piperidine-1-carboxylate]		10 nM
CC(NC(=O)c1ccc(Cl)s1)C1CCN(C(=O)Oc2ccccc2)CC1 (centres unmarked) [Example 52, phenyl 4-{1-[(5-chlorothiophen-2-yl)formamido]ethyl}piperidine-1-carboxylate]	15.8 nM	
O=C(NC(c1ccccc1)C1CCN(C(=O)Oc2ccccc2)CC1)c1ccc(Cl)c(F)c1 (centres unmarked) [Example 53, phenyl 4-{[(4-chloro-3-fluorophenyl)formamido](phenyl)methyl}piperidine-1-carboxylate]	20 nM	
COc1cccc(OC(=O)N2CCC(C(CC(C)C)NC(=O)c3ccc(F)cc3)CC2)c1 (centres unmarked) [Example 54, 3-methoxyphenyl 4-{1-[(4-fluorophenyl)formamido]-3-methylbutyl}piperidine-1-carboxylate]	20 nM	
Cc1c(F)cccc1OC(=O)N1CCC([C@@H](C)NC(=O)c2ccccc2)CC1 [Example 56, 3-fluoro-2-methylphenyl 4-[(1R)-1-(phenylformamido)ethyl]piperidine-1-carboxylate]	25.1 nM	
COc1ccc(C(=O)NC(c2ccccc2)C2CCN(C(=O)Oc3ccccc3)CC2)cc1F (centres unmarked) [Example 57, phenyl 4-{[(3-fluoro-4-methoxyphenyl)formamido](phenyl)methyl}piperidine-1-carboxylate]	39.8 nM	
CC(C)C[C@H](NC(=O)c1ccc(Cl)s1)C1CCN(C(=O)Oc2ccccc2)CC1 [Example 58, phenyl 4-[(1S)-1-[(5-chlorothiophen-2-yl)formamido]-3-methylbutyl]piperidine-1-carboxylate]	39.8 nM	
CC(C)CC(NC(=O)c1ccc(F)cc1)C1CCN(C(=O)Oc2ccc(Cl)cc2)CC1 (centres unmarked) [Example 59, 4-chlorophenyl 4-{1-[(4-fluorophenyl)formamido]-3-methylbutyl}piperidine-1-carboxylate]	50.1 nM	

Continued, in another order:

IC50 [1]	Structure (SMILES)	IC50
6.31 nM	Cc1c(OC(=O)N2CCC(C(CC(C)C)NC(=O)c3ccc(F)cc3)CC2)ccnc1F (centres unmarked) [Example 33, 2-fluoro-3-methylpyridin-4-yl 4-{1-[(4-fluorophenyl)formamido]-3-methylbutyl}piperidine-1-carboxylate]	
6.31 nM	Cc1nccc(OC(=O)N2CCC(C(CC(C)C)NC(=O)c3ccc(Cl)cc3)CC2)c1C (centres unmarked) [Example 35, 2,3-dimethylpyridin-4-yl 4-{1-[(4-chlorophenyl)formamido]-3-methylbutyl}piperidine-1-carboxylate]	
7.94 nM	Cc1cccc(OC(=O)N2CCC(C(CC(C)C)NC(=O)c3ccc(F)cc3)CC2)c1C (centres unmarked) [Example 40, 2,3-dimethylphenyl 4-{1-[(4-fluorophenyl)formamido]-3-methylbutyl}piperidine-1-carboxylate]	
7.94 nM	CC(C)CC(NC(=O)c1ccc(F)cc1)C1CCN(C(=O)Oc2cccc(C#N)c2F)CC1 (centres unmarked) [Example 41, 3-cyano-2-fluorophenyl 4-{1-[(4-fluorophenyl)formamido]-3-methylbutyl}piperidine-1-carboxylate]	
10 nM	Cc1nccc(OC(=O)N2CCC(C(CC(C)C)NC(=O)c3ccc(F)cc3)CC2)c1C (centres unmarked) [Example 44, 2,3-dimethylpyridin-4-yl 4-{1-[(4-fluorophenyl)formamido]-3-methylbutyl}piperidine-1-carboxylate]	
10 nM	CC(C)CC(NC(=O)c1ccc(F)cc1)C1CCN(C(=O)Oc2ccncc2F)CC1 (centres unmarked) [Example 47, 3-fluoropyridin-4-yl 4-{1-[(4-fluorophenyl)formamido]-3-methylbutyl}piperidine-1-carboxylate]	
10 nM	CC(C)CC(NC(=O)c1ccc(F)cc1)C1CCN(C(=O)Oc2ccnc(F)c2F)CC1 (centres unmarked) [Example 48, 2,3-difluoropyridin-4-yl 4-{1-[(4-fluorophenyl)formamido]-3-methylbutyl}piperidine-1-carboxylate]	
12.6 nM	CC(C)CC(NC(=O)c1ccc(F)cc1)C1CCN(C(=O)Oc2ccc(F)cc2)CC1 (centres unmarked) [Example 50, 4-fluorophenyl 4-{1-[(4-fluorophenyl)formamido]-3-methylbutyl}piperidine-1-carboxylate]	
12.6 nM	Cc1nccc(OC(=O)N2CCC(C(CC(C)C)NC(=O)c3ccc(F)cc3)CC2)c1F (centres unmarked) [Example 51, 3-fluoro-2-methylpyridin-4-yl 4-{1-[(4-fluorophenyl)formamido]-3-methylbutyl}piperidine-1-carboxylate]	
20 nM	CC(C)CC(NC(=O)c1ccc(F)cc1)C1CCN(C(=O)Oc2ccnc(F)c2)CC1 (centres unmarked) [Example 55, 2-fluoropyridin-4-yl 4-{1-[(4-fluorophenyl)formamido]-3-methylbutyl}piperidine-1-carboxylate]	
